Results published in paper PMC5344036 (Molecular imaging and biology : MIB : the official …, 2014).
Like-named read-outs stand apart in the source and are kept apart here. One block for each molecule: values may come before it.

Assays:
α7-nAChR [1] = molecular target: α7-nAChR (Mus musculus, UniProt P49582); format: in vivo, CD1 mice; settings: 90 min post-tracer
α7-nAChR [2] = settings: mouse brain, prior studies of the authors; cited from earlier work
α7-nAChR [3] = settings: baboon brain, prior studies of the authors; cited from earlier work
α7-nAChR [4] = settings: monkey PET, injection of SSR180711; cited from earlier work
α7-nAChRs = settings: read-out: equilibrium dissociation constant KD; rat; cited from earlier work
α7-nAChR [5] = settings: rat hippocampus or human α7-nAChR recombinant membranes; cited from earlier work
α7-nAChR [6] = molecular target: T1, α7-nAChR (Homo sapiens, UniProt P36544); settings: single human PET experiment; cited from earlier work
T1 sequence (P36544 23-502): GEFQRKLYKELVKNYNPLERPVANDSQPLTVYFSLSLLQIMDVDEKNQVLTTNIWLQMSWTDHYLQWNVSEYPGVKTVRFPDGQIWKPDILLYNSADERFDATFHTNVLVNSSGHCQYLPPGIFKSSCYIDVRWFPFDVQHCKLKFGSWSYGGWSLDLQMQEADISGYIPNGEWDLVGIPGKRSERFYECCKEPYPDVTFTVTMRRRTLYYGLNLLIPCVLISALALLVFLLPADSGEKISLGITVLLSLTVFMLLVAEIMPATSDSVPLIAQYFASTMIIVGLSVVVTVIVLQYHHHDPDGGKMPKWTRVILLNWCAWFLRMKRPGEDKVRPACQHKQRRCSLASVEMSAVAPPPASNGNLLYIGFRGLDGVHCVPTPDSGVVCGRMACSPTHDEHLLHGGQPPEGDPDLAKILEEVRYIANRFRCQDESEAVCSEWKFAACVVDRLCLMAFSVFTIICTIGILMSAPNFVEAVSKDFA

[7] = [^18F]ASEM metabolite analysis in human plasma; format: in vivo; settings: for parent [^18F]ASEM metabolized: human plasma
α7-nAChR [8] = molecular target: T1, α7-nAChR; test: Human PET brain imaging with [^18F]ASEM; format: in vivo

α7-nAChR (Mus musculus, UniProt P49582), sequence (P49582 23-502): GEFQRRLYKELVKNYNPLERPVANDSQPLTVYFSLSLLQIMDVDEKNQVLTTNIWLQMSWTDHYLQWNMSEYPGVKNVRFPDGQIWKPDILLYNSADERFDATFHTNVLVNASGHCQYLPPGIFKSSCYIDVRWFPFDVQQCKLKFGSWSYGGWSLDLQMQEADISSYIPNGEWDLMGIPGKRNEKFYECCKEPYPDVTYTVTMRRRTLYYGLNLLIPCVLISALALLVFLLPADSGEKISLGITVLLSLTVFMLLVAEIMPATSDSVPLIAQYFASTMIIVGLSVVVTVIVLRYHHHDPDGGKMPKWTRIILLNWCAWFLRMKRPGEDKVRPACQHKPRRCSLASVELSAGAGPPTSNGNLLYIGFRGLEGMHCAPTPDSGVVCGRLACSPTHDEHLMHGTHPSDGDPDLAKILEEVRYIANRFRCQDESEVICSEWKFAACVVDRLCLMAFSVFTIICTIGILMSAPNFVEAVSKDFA

blockade of [^18F]ASEM binding (α7-nAChR [1]; 3 mg/kg IP, hippocampus, p<0.05): 28%
blockade of [^18F]ASEM binding (α7-nAChR [1]; 10 mg/kg IP, hippocampus, cortex, subcolliculus, p<0.01): 50–70%
blockade of [^18F]ASEM binding (α7-nAChR [1]; 0.1, 0.3 and 1 mg/kg IP): did not show significant blockade
Compound: COc1ccc(/C=C2\CCCN=C2c2cccnc2)c(OC)c1 [DMXB-A, Dimethoxybenzylidene anabaseine]

Compound: O=C(Oc1ccc(Br)cc1)N1CCN2CCC1CC2 [SSR180711]
blockade of [^18F]ASEM binding (α7-nAChR [2]): successfully blocked
blockade of [^18F]ASEM binding (α7-nAChR [3]): successfully blocked
reduction of [^11C]CHIBA-1001 radioactivity in the high uptake regions (α7-nAChR [4]): 25–30%

Compound: Cc1ccc(OC(=O)N2CCN3CCC2CC3)cc1 [[^3H]CHIBA-1001]
Kd (α7-nAChRs): 193 nM
Kd (α7-nAChR [5]): 120 to 180 nM

Compound: [11CH3]c1ccc(OC(=O)N2CCN3CCC2CC3)cc1 [[^11C]CHIBA-1001]
target-to-non-target ratios in the brain regions (α7-nAChR [6]): < 1.3

Compound: O=S1(=O)c2cc(N3CCN4CCC3CC4)ccc2-c2cccc([18F])c21 [[^18F]ASEM, 3-(1,4-diazabicyclo[3.2.2]nonan-4-yl)-6-[^18F]fluorodibenzo[b,d]thiophene 5,5-dioxide]
time of plasma TAC peak ([7]; human arterial plasma): ≤ 1 min
parent [^18F]ASEM metabolized ([7]; 30 min post-injection): 52.6±12.9%
parent [^18F]ASEM metabolized ([7]; 90 min post-injection): 83.5±9.7%
distribution volume VT, lower-binding regions (α7-nAChR [8]; entorhinal cortex, cerebellum, caudate, corpus callosum, PRGA): < 15 ml/ml
time of peak brain uptake post-injection (α7-nAChR [8]; human brain, after IV bolus injection): 15 min
test-retest variability (TRV) of VT (α7-nAChR [8]; medium and high VT regions, two subjects, two scans separated by a few days): 10.8±5.1%
